The values below come from patent US10472677B2, “Translational dysfunction based therapeutics” (Translational Therapeutics, Inc., priority 2005, dated 2019).

Structures are written as SMILES.

Assay [1] deals with 4E mediated apoptotic rescue. Kind of assay: 4E mediated apoptotic rescue. Type of assay: cell-based. Particulars: FIG. 37.
For the next assay, the system named is liver metastatic disease. Particulars: Jeney et al. 2006; cited from earlier work.
In another assay the target is T1, eIF4E wild-type (Mus musculus, UniProt P63073).
T1 construct: made in house
The experiment in a line: tryptophan fluorescence quenching titration of nucleoside/nucleotide binding. To be noted: fluorescence spectroscopy, wild-type eIF4E; read-out: apparent dissociation constant (Kd) for eIF4E. Here is the method:
For fluorescence titrations, mouse eIF4E, which differs from human eIF4E by four nonconserved amino acids, was produced as described. For NMR spectroscopy, mouse eIF4E was expressed as a fusion with the B1 domain of protein G (G4E, kind gift of Gerhard Wagner, Harvard University, Cambridge, Mass.), in BL21 (DE-3) cells by induction with 0.8 mM isopropyl-β-D-thiogalactopyranoside at 18° C. for 20 h in M9 minimal media containing 1 g/l ^15NH4Cl as the sole nitrogen source (Cambridge Isotopes). Cells were lysed at 4° C. by sonication in 0.1 M NaCl/50 mM Tris.HCl (pH 7.5/0.5 mM EDTA/0.5% (vol/vol) Nonidet P-40/10 mM 2-mercaptoethanol/1 mM PMSF. Lysates were cleared by centrifugation at 30,000×g, adsorbed onto m^7G diphosphate-conjugated agarose (Amersham Pharmacia), and extensively washed with 0.1 M NaCl/20 mM Tris.HCl (pH 7.5)/0.5 mM EDTA (Buffer A) at 4° C. Subsequently, beads were washed with 0.1 mM GTP in Buffer A, and G4E was eluted with 5 mM m^7G in Buffer A. Eluate was diluted with 20 mM Na2PO4 (pH 7.5) to reduce NaCl concentration to 50 mM, applied to Sepharose Q anion exchange column (Amersham Pharmacia), and eluted with a linear gradient of NaCl in 20 mM Na2PO4 (pH 7.5) at 4° C. Eluate was dialyzed extensively against 0.1 M NaCl/50 mM Na2PO4 (pH 6.5)/5 mM DTT at 4° C. to produce apo-G4E, as verified by using NMR spectroscopy and fluorescence titrations. Purity and identity of G4E were verified by using SDS/PAGE and electrospray ionization MS. Proteins were concentrated by using Amicon concentrators (Millipore).
(§1) Fluorescence measurements were performed by using a home-built fluorimeter, as described. All titrations were performed in 0.3 M NaCl/10 mM Na2PO4 (pH 7.5)/1 μM zinc in 0.3×0.3 cm^2 fluorescence cuvette (Hellma), by using eIF4E concentration of 2 μM. […] Corrected relative fluorescence intensities were normalized, and fluorescence quenching curves were fit to a heuristic single-site-binding expression: I/I0=Kd^n/(x^n+Kd^n) where x is ligand concentration, Kd is the apparent dissociation constant, and n is the Hill coefficient.

Another assay deals with T2, eIF4E W56A (Mus musculus, UniProt P63073, W56A).
T2 construct: made in house
Kind of assay: tryptophan fluorescence quenching titration, cap-binding site mutant. Particulars: relative to wild-type eIF4E. The method, then:
For fluorescence titrations, mouse eIF4E, which differs from human eIF4E by four nonconserved amino acids, was produced as described. For NMR spectroscopy, mouse eIF4E was expressed as a fusion with the B1 domain of protein G (G4E, kind gift of Gerhard Wagner, Harvard University, Cambridge, Mass.), in BL21 (DE-3) cells by induction with 0.8 mM isopropyl-β-D-thiogalactopyranoside at 18° C. for 20 h in M9 minimal media containing 1 g/l ^15NH4Cl as the sole nitrogen source (Cambridge Isotopes). […] Eluate was dialyzed extensively against 0.1 M NaCl/50 mM Na2PO4 (pH 6.5)/5 mM DTT at 4° C. to produce apo-G4E, as verified by using NMR spectroscopy and fluorescence titrations. […]
as §1

Assay [2] concerns eIF4E nuclear bodies in NIH 3T3 cells. Kind of assay: subcellular eIF4E organization, confocal immunofluorescence and fractionation/Western. It counts as cell-based, mouse. Here is the method: NIH 3T3 mouse fibroblasts were maintained under subconfluent conditions in DMEM (GIBCO/BRL)/10% (vol/vol) FBS/2 mM […]/0.1 mg/ml penicillin-streptomycin, at 37° C. in 5% CO2. For cell treatments, drugs were dissolved in PBS (pH 7.4) and filter-sterilized. Untreated cells received filter-sterilized PBS.
Cells were washed with PBS, fixed in methanol for 20 min at −20° C., and blocked in PBS, 10% (vol/vol) FBS, and 0.1% (vol/vol) Tween 20 for 30 min at room temperature. Blocked cells were stained with primary antibodies against Nopp140 [1:50 (2)], Sc35 (1:50, Becton Dickinson), and eIF4E (1:50, Transduction Laboratories) in blocking solution for 3 h at room temperature. Upon washing with PBS, cells were stained with secondary antibodies in blocking solution for 30 min. FITC-conjugated donkey anti-rabbit antibody (Jackson ImmunoResearch), Texas red-conjugated donkey anti-mouse antibody, and FITC-conjugated rabbit anti-mouse antibody, as appropriate. […] Fluorescence was observed by using 100× optical magnification and 2× digital zoom using Leica TCS-SP confocal microscope using excitation wavelengths of 488, 568, or 351/364 nm. All channels were detected separately, with no observable crosstalk. […]
Cells were washed twice with PBS and lysed by slow pipetting in 0.14 M NaCl/10 mM Tris.HCl (pH 8.4)/1.5 mM MgCl2/0.5% (vol/vol) Nonidet P-40/1 mM DTT/100 units/ml RNasin (Promega) at 4° C. […] This yielded intact nuclei, as observed by using light microscopy, with no significant cytoplasmic contamination, as evaluated using tRNA^Lys and β-actin contents. […]
Protein from whole cells or nuclear and cytoplasmic fractions was extracted by using 0.15 M NaCl/50 mM Tris.HCl (pH 7.4)/1% (vol/vol) Nonidet P-40/0.25% (wt/vol) sodium deoxycholate/1 mM EDTA/1 mM PMSF by incubating for 30 min at 4° C. […] Bound antibodies were chemiluminescently detected by using horseradish peroxidase-conjugated secondary antibodies (Amersham Pharmacia) and SuperSignal West Pico reagent according to manufacturer's instructions (Pierce).

T1 sequence (P63073 whole entry): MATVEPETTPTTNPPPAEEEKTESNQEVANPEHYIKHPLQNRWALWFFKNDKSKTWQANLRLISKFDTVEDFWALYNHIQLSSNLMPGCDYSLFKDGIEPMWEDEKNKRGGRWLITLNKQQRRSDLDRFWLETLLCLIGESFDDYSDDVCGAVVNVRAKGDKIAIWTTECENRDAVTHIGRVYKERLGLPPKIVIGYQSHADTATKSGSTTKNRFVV
T2 sequence (P63073 whole entry W56A): as the sequence (P63073 whole entry) above, with W56A counted along it

The EC50 is the midpoint of the concentration-response curve. `NC(=O)c1ncn([C@@H]2O[C@H](CO)[C@@H](O)[C@H]2O)n1` [Ribavirin, 1-β-D-ribofuranosyl-1,2,4-triazole-3-carboxamide]: in assay [1], the “effect on 4E mediated apoptotic rescue” value was “blocks”. In addition, in the assay with liver metastatic disease, the “effect on liver metastatic disease” value is “reduce liver metastatic disease”. Besides, the Kd on eIF4E wild-type worked out at 8.4 µM. In addition, the “reduction of Ribavirin affinity by W56A mutation” value at eIF4E W56A was found to be 14 fold. In addition, in assay [2] (Mus musculus, NIH3T3, NIH 3T3, read-out: EC50 disruption of nuclear eIF4E bodies and cytoplasmic retention of eIF4E), the EC50 fell in the range of 100 to 1000 nM. Also, in assay [2] (NIH 3T3, 48 h), the “concentration at which disruption of eIF4E nuclear bodies is evident” value amounted to 1 µM and the “concentration at which disruption of eIF4E nuclear bodies is nearly complete” value stood at 10 µM.
